{"source": "ChEMBL document CHEMBL5131475", "about": "“Metallo-β-lactamases inhibitor fisetin attenuates meropenem resistance in NDM-1-producing Escherichia coli” (Eur J Med Chem, 2022)", "key": {"Escherichia coli [1]": {"test_system": "Escherichia coli", "test": "Synergistic antibacterial activity against NDM-1 positive Escherichia coli ZC-YN3 isolates assessed as fractional Inhibitory concentration index incubated for 18 to 24 hrs in presence of kanamycin by CLSI based broth microdilution method", "format": "functional", "conditions": "time 18-24 hrs"}, "Escherichia coli [2]": {"test_system": "Escherichia coli", "test": "Antibacterial activity against NDM-1 negative Escherichia coli BL21(DE3) (pET28a) isolates assessed as meropenem MIC incubated for 18 to 24 hrs by CLSI based broth microdilution method", "format": "functional", "conditions": "time 18-24 hrs"}, "Escherichia coli [3]": {"test_system": "Escherichia coli", "test": "Synergistic antibacterial activity against NDM-1 negative Escherichia coli ATCC25922 isolates assessed as fractional Inhibitory concentration index incubated for 18 to 24 hrs in presence of meropenem by CLSI based broth microdilution method", "format": "functional", "conditions": "time 18-24 hrs"}, "Escherichia coli [4]": {"test_system": "Escherichia coli", "test": "Synergistic antibacterial activity against pET28a NDM-1 positive Escherichia coli BL21(DE3) isolates assessed as fractional Inhibitory concentration index incubated for 18 to 24 hrs in presence of imipenem by CLSI based broth microdilution method", "format": "functional", "conditions": "time 18-24 hrs"}, "Bacteria [5]": {"test_system": "Bacteria", "description": "Binding affinity to NDM-1 H250A mutant (unknown origin) assessed as binding constant by fluorescence quenching method"}, "Escherichia coli [6]": {"test_system": "Escherichia coli", "test": "Synergistic antibacterial activity against pET28a NDM-1 positive Escherichia coli BL21(DE3) isolates assessed as fractional Inhibitory concentration index incubated for 18 to 24 hrs in presence of tetracycline by CLSI based broth microdilution method", "format": "functional", "conditions": "time 18-24 hrs"}, "Escherichia coli [7]": {"test_system": "Escherichia coli", "test": "Synergistic antibacterial activity against pET28a NDM-1 positive Escherichia coli BL21(DE3) isolates assessed as fractional Inhibitory concentration index incubated for 18 to 24 hrs in presence of doxycycline by CLSI based broth microdilution method", "format": "functional", "conditions": "time 18-24 hrs"}, "Bacteria [8]": {"test_system": "Bacteria", "test": "Inhibition of NDM-1 V73A mutant activity (unknown origin) in presence of zinc ion"}, "Escherichia coli [9]": {"test_system": "Escherichia coli", "test": "Synergistic antibacterial activity against pET28a NDM-1 positive Escherichia coli BL21(DE3) isolates assessed as fractional Inhibitory concentration index incubated for 18 to 24 hrs in presence of ciprofloxacin by CLSI based broth microdilution method", "format": "functional", "conditions": "time 18-24 hrs"}, "[10]": {"test": "Inhibition of class A […]beta-lactamase KPC-2 (unknown origin) using nitrocefin as substrate preincubated for 15 min followed by substrate addition and measured after 15 min by microplate reader assay", "set-up": "species or system Bacteria"}, "Escherichia coli [11]": {"test_system": "Escherichia coli", "test": "Antibacterial activity against pET28a-NDM-1 positive Escherichia coli BL21(DE3) isolates assessed as kanamycin MIC incubated for 18 to 24 hrs by CLSI based broth microdilution method", "format": "functional", "conditions": "time 18-24 hrs"}, "Escherichia coli [12]": {"test_system": "Escherichia coli", "test": "Synergistic antibacterial activity against NDM-1 positive Escherichia coli ZC-YN3 isolates assessed as fractional Inhibitory concentration index incubated for 18 to 24 hrs in presence of streptomycin by CLSI based broth microdilution method", "format": "functional", "conditions": "time 18-24 hrs"}, "Escherichia coli [13]": {"test_system": "Escherichia coli", "test": "Synergistic antibacterial activity against NDM-1 positive Escherichia coli ZC-YN3 isolates assessed as fractional Inhibitory concentration index incubated for 18 to 24 hrs in presence of ciprofloxacin by CLSI based broth microdilution method", "format": "functional", "conditions": "time 18-24 hrs"}, "Escherichia coli [14]": {"test_system": "Escherichia coli", "test": "Synergistic antibacterial activity against NDM-1 positive Escherichia coli ZC-YN3 isolates assessed as fractional Inhibitory concentration index incubated for 18 to 24 hrs in presence of rifampicin by CLSI based broth microdilution method", "format": "functional", "conditions": "time 18-24 hrs"}, "Escherichia coli [15]": {"test_system": "Escherichia coli", "test": "Synergistic antibacterial activity against NDM-1 positive Escherichia coli ZC-YN3 isolates assessed as fractional Inhibitory concentration index incubated for 18 to 24 hrs in presence of imipenem by CLSI based broth microdilution method", "format": "functional", "conditions": "time 18-24 hrs"}, "Escherichia coli [16]": {"test_system": "Escherichia coli", "test": "Antibacterial activity against NDM-1 positive Escherichia coli ZC-YN3 isolates assessed as doxycycline MIC incubated for 18 to 24 hrs by CLSI based broth microdilution method", "format": "functional", "conditions": "time 18-24 hrs"}, "Escherichia coli [17]": {"test_system": "Escherichia coli", "test": "Synergistic antibacterial activity against NDM-1 positive Escherichia coli ZC-YN3 isolates assessed as fractional Inhibitory concentration index incubated for 18 to 24 hrs in presence of spectinomycin by CLSI based broth microdilution method", "format": "functional", "conditions": "time 18-24 hrs"}, "Mus musculus": {"test_system": "Mus musculus", "test": "Synergistic antibacterial activity in BALB/c mouse infected with NDM-1 positive Escherichia coli ZJ487 assessed as increase in survival rate at 50 mg/kg, sc administered every 12 hrs and measured after 96 hrs post infection in presence of meropenem", "format": "functional"}, "[18]": {"test": "Inhibition of metallo-beta-lactamase VIM-1 (unknown origin) using nitrocefin as substrate preincubated for 15 min followed by substrate addition and measured after 15 min by microplate reader assay", "set-up": "species or system Bacteria"}, "Escherichia coli [19]": {"test_system": "Escherichia coli", "test": "Antibacterial activity against pET28a-NDM-1 positive Escherichia coli BL21(DE3) isolates assessed as meropenem MIC incubated for 18 to 24 hrs by CLSI based broth microdilution method", "format": "functional", "conditions": "time 18-24 hrs"}, "Escherichia coli [20]": {"test_system": "Escherichia coli", "test": "Synergistic antibacterial activity against NDM-1 positive Escherichia coli ZC-YN3 isolates assessed as fractional Inhibitory concentration index incubated for 18 to 24 hrs in presence of tetracycline by CLSI based broth microdilution method", "format": "functional", "conditions": "time 18-24 hrs"}, "Escherichia coli [21]": {"test_system": "Escherichia coli", "test": "Antibacterial activity against pET28a-NDM-1 positive Escherichia coli BL21(DE3) isolates assessed as colistin MIC incubated for 18 to 24 hrs by CLSI based broth microdilution method", "format": "functional", "conditions": "time 18-24 hrs"}, "Bacteria [22]": {"test_system": "Bacteria", "test": "Binding affinity to NDM-1 V73A mutant (unknown origin) assessed as binding free energy by fluorescence quenching method"}, "Escherichia coli [23]": {"test_system": "Escherichia coli", "test": "Antibacterial activity against NDM-1 positive Escherichia coli ZC-YN3 isolates assessed as vancomycin MIC incubated for 18 to 24 hrs by CLSI based broth microdilution method", "format": "functional", "conditions": "time 18-24 hrs"}, "Escherichia coli [24]": {"test_system": "Escherichia coli", "test": "Bactericidal activity against pET28a-NDM-1 producing Escherichia coli BL21(DE3) at 32 ug/ml measured within 3 hrs in presence of meropenem by time kill curve assay", "format": "functional, organism-based", "conditions": "dose 32.0 µg/ml"}, "Escherichia coli [25]": {"test_system": "Escherichia coli", "test": "Antibacterial activity against NDM-1 positive Escherichia coli ZC-YN3 isolates assessed as tetracycline MIC incubated for 18 to 24 hrs by CLSI based broth microdilution method", "format": "functional", "conditions": "time 18-24 hrs"}, "Escherichia coli [26]": {"test_system": "Escherichia coli", "test": "Antibacterial activity against NDM-1 positive Escherichia coli ZC-YN3 isolates assessed as cefotaxime MIC incubated for 18 to 24 hrs by CLSI based broth microdilution method", "format": "functional", "conditions": "time 18-24 hrs"}, "Escherichia coli [27]": {"test_system": "Escherichia coli", "test": "Synergistic antibacterial activity against NDM-1 positive Escherichia coli ZC-YN3 isolates assessed as fractional Inhibitory concentration index incubated for 18 to 24 hrs in presence of florfenicol by CLSI based broth microdilution method", "format": "functional", "conditions": "time 18-24 hrs"}, "Escherichia coli [28]": {"test_system": "Escherichia coli", "test": "Synergistic antibacterial activity against NDM-1 positive Escherichia coli ZC-YN3 isolates assessed as fractional Inhibitory concentration index incubated for 18 to 24 hrs in presence of doxycycline by CLSI based broth microdilution method", "format": "functional", "conditions": "time 18-24 hrs"}, "Bacteria [29]": {"test_system": "Bacteria", "test": "Binding affinity to NDM-1 (unknown origin) assessed as binding free energy by fluorescence quenching method"}, "Escherichia coli [30]": {"test_system": "Escherichia coli", "test": "Antibacterial activity against NDM-1 positive MCR1 carrying Escherichia coli ZJ487 isolates assessed as meropenem MIC incubated for 18 to 24 hrs by CLSI based broth microdilution method", "format": "functional", "conditions": "time 18-24 hrs"}, "Escherichia coli [31]": {"test_system": "Escherichia coli", "test": "Synergistic antibacterial activity against pET28a NDM-1 positive Escherichia coli BL21(DE3) isolates assessed as fractional Inhibitory concentration index incubated for 18 to 24 hrs in presence of spectinomycin by CLSI based broth microdilution method", "format": "functional", "conditions": "time 18-24 hrs"}, "Escherichia coli [32]": {"test_system": "Escherichia coli", "test": "Antibacterial activity against pET28a-NDM-1 positive Escherichia coli BL21(DE3) isolates assessed as vancomycin MIC incubated for 18 to 24 hrs by CLSI based broth microdilution method", "format": "functional", "conditions": "time 18-24 hrs"}, "Bacteria [33]": {"test_system": "Bacteria", "remark": "listed apart in the source", "description": "Binding affinity to NDM-1 V73A mutant (unknown origin) assessed as binding constant by fluorescence quenching method"}, "Bacteria [34]": {"test_system": "Bacteria", "test": "Inhibition of NDM-1 H250A mutant activity (unknown origin) in presence of zinc ion"}}, "note": "Active and inactive are the calls of the source. No cut-off for these calls is given here."}
{"compound": "O=c1c(O)c(-c2ccc(O)c(O)c2)oc2cc(O)ccc12", "note": "[FISETIN]", "values": [{"measurement": "fractional inhibitory concentration index (FICI)", "setting": "Escherichia coli [1]", "value": 1.13}, {"measurement": "MIC", "setting": "Escherichia coli [2]", "value": 0.01, "unit": "µg/mL"}, {"measurement": "fractional inhibitory concentration index (FICI)", "setting": "Escherichia coli [3]", "value": 1.13}, {"measurement": "fractional inhibitory concentration index (FICI)", "setting": "Escherichia coli [4]", "value": 0.46}, {"measurement": "Ka", "setting": "Bacteria [5]", "value": "6.95 10^5L/mol"}, {"measurement": "fractional inhibitory concentration index (FICI)", "setting": "Escherichia coli [6]", "value": 0.96}, {"measurement": "fractional inhibitory concentration index (FICI)", "setting": "Escherichia coli [7]", "value": 0.96}, {"measurement": "inhibition", "setting": "Bacteria [8]", "value": "Active"}, {"measurement": "fractional inhibitory concentration index (FICI)", "setting": "Escherichia coli [9]", "value": 0.96}, {"measurement": "IC50", "setting": "[10]", "value": 2.63, "unit": "µg/mL"}, {"measurement": "MIC", "setting": "Escherichia coli [11]", "value": 512, "unit": "µg/mL"}, {"measurement": "fractional inhibitory concentration index (FICI)", "setting": "Escherichia coli [12]", "value": 1.13}, {"measurement": "fractional inhibitory concentration index (FICI)", "setting": "Escherichia coli [13]", "value": 1.13}, {"measurement": "fractional inhibitory concentration index (FICI)", "setting": "Escherichia coli [14]", "value": 0.96}, {"measurement": "fractional inhibitory concentration index (FICI)", "setting": "Escherichia coli [15]", "value": 0.38}, {"measurement": "MIC", "setting": "Escherichia coli [16]", "value": 53.3, "unit": "µg/mL"}, {"measurement": "fractional inhibitory concentration index (FICI)", "setting": "Escherichia coli [17]", "value": 1.13}, {"measurement": "Activity", "setting": "Mus musculus", "value": 60, "unit": "%"}, {"measurement": "IC50", "setting": "[18]", "value": 11.37, "unit": "µg/mL"}, {"measurement": "MIC", "setting": "Escherichia coli [19]", "value": 4.67, "unit": "µg/mL"}, {"measurement": "fractional inhibitory concentration index (FICI)", "setting": "Escherichia coli [20]", "value": 1.13}, {"measurement": "MIC", "setting": "Escherichia coli [21]", "value": 1.67, "unit": "µg/mL"}, {"measurement": "Activity", "setting": "Bacteria [22]", "value": -18.7, "unit": "kcal/mol"}, {"measurement": "MIC", "setting": "Escherichia coli [23]", "value": 427, "unit": "µg/mL"}, {"measurement": "Activity", "setting": "Escherichia coli [24]", "value": "Active"}, {"measurement": "MIC", "setting": "Escherichia coli [25]", "value": 128, "unit": "µg/mL"}, {"measurement": "MIC", "setting": "Escherichia coli [26]", "value": 512, "unit": "µg/mL"}, {"measurement": "fractional inhibitory concentration index (FICI)", "setting": "Escherichia coli [27]", "value": 0.96}, {"measurement": "fractional inhibitory concentration index (FICI)", "setting": "Escherichia coli [28]", "value": 0.96}, {"measurement": "Activity", "setting": "Bacteria [29]", "value": -25, "unit": "kcal/mol"}, {"measurement": "MIC", "setting": "Escherichia coli [30]", "value": 5.33, "unit": "µg/mL"}, {"measurement": "fractional inhibitory concentration index (FICI)", "setting": "Escherichia coli [31]", "value": 0.96}, {"measurement": "MIC", "setting": "Escherichia coli [32]", "value": 683, "unit": "µg/mL"}, {"measurement": "Ka", "setting": "Bacteria [33]", "value": "11.1 10^5L/mol"}, {"measurement": "inhibition", "setting": "Bacteria [34]", "value": "Active"}]}
